Data as given in patent publication US10111892B2, “Anti-cancer agent” (priority 2009, dated 2018).

Experiments:
[1] = system: KB (oral squamous cell carcinoma); assay: In vitro anti-tumor activity test (MTT), KB cells; type: cell-based; details: 48 hours of culture
Description: (§1) [In Vitro Anti-Tumor Activity Test]
(§2) The phosphine transition metal complexes obtained in the examples and the comparative examples were subjected to an in vitro anti-tumor activity test. Specifically, KB (oral squamous cell carcinoma) and A375 (malignant melanoma) were used as cancer cells, and these cells were cultured in an incubator at 37° C. in a culture medium (RPMI-1640 or DEME) to which 10% inactivated fetal calf serum, L-glutamine, sodium pyruvate, 1×10^5 U/L of penicillin, and 100 mg/L of streptomycin had been supplemented. The cells were added such that each well contained 2×10^5 cells. Subsequently, the phosphine transition metal complex dissolved in dimethylsulfoxide was added to the medium and cultured for 48 hours. After the 48 hours of culture, a 5 mg/ml (3,[4,5-dimethylthiazol-2-yl]-2,5-diphenyltetrazolium bromide MTT) solution was added at 20 μl to each well, followed by culture for 3 to 4 hours in an incubator. Thereafter, 100 μl of a solution was further added to each well to completely solubilize the generated formazan crystals. The absorbance of the resultant at 492 nm was then measured, and IC50 was calculated.

[2] = system: A375 (malignant melanoma); assay: In vitro anti-tumor activity test (MTT), A375 cells; type: cell-based; details: 48 hours of culture
Description: as §1, §2

[3] = system: KM rats; assay: Toxicity test, single oral administration to rats; type: in vivo; details: for Oral administration LD50: male and female KM rats, single oral dose in corn oil, observed to the fourteenth day
Description: Toxicity caused when the phosphine transition metal complexes obtained in the examples and the comparative examples were orally administered to rats was tested. Specifically, male and female KM rats were quarantined and raised while being acclimated, and then the selected 20 rats in total including 10 male rats and 10 female rats were formed into a group. The phosphine transition metal complexes obtained in the examples and comparative examples were orally administered once to rats which were fasted over night before the administration and whose weights were recorded, by using corn oil as a solvent and with a design such that a group showing sufficient fatal cases was included to determine LD50.

CP(c1nc2ccccc2nc1P(C)C(C)(C)C)C(C)(C)C.CP(c1nc2ccccc2nc1P(C)C(C)(C)C)C(C)(C)C.[Au+].[Cl-] (stereo not shown) [Comparative Example 1, Bis(2,3-bis(tert-butylmethylphosphino)quinoxaline)gold(I) chloride, reference compound]
In vitro anti-tumor activity IC50, KB [1]: 1.11 µg/mL
In vitro anti-tumor activity IC50, A375 [2]: 2.26 µg/mL
Oral administration LD50 [3]: 90.99 mg/kg
toxicity (in words) ([3]; oral administration to rats, compared with the other complexes): relatively high

CP(c1nc2ccccc2nc1P(C)C(C)(C)C)C(C)(C)C.CP(c1nc2ccccc2nc1P(C)C(C)(C)C)C(C)(C)C.[Au+].[Cl-] (stereo not shown) [Example 1, bis(2,3-bis(tert-butylmethylphosphino)quinoxaline)gold(I) chloride]
In vitro anti-tumor activity IC50, KB [1]: 0.94 µg/mL
In vitro anti-tumor activity IC50, A375 [2]: 1.13 µg/mL
Oral administration LD50 [3]: 134.37 mg/kg

CP(c1nc2ccccc2nc1P(C)C(C)(C)C)C(C)(C)C.CP(c1nc2ccccc2nc1P(C)C(C)(C)C)C(C)(C)C.[Au+].[Cl-] (stereo not shown) [Example 3, Bis(2,3-bis(tert-butylmethylphosphino)quinoxaline)gold(I) chloride]
In vitro anti-tumor activity IC50, KB [1]: 0.97 µg/mL
In vitro anti-tumor activity IC50, A375 [2]: 1.22 µg/mL
Oral administration LD50 [3]: 118.66 mg/kg

Bis(2,3-bis(tert-butylmethylphosphino)quinoxaline) gold(I) chloride [Example 2]
In vitro anti-tumor activity IC50, KB [1]: 1.03 µg/mL
In vitro anti-tumor activity IC50, A375 [2]: 1.94 µg/mL
Oral administration LD50 [3]: 97.44 mg/kg
